Measured values reported in article PMC6151437, “Antibacterial Synthetic Peptides Derived from Bovine Lactoferricin Exhibit Cytotoxic Effect against MDA-MB-468 and MDA-MB-231 Breast Cancer Cell Lines” (Molecules : A Journal of Synthetic Chemistry and Natural …, 2017).
Bridge positions count the residues as written; N and C are the ends. Square brackets hold non-standard residues; d marks the D form. Peptide text beside a SMILES is read from it. I, II: the chains in the order shown. Ahx = NCCCCCC(=O)O

How the values were obtained:
[1] = not given; remark: listed apart in the source

Row | SMILES | minimum concentration with maximum (optimal) cytotoxic effect | concentration of maximum cytotoxic effect [1]
1 | N=C(N)NCCC[C@H](NC(=O)[C@H](Cc1c[nH]c2ccccc12)NC(=O)[C@H](CCC(N)=O)NC(=O)[C@H](Cc1c[nH]c2ccccc12)NC(=O)[C@H](CCCNC(=N)N)NC(=O)[C@@H](N)CCCNC(=N)N)C(=O)NCCCC[C@H](NC(=O)[C@H](CCCNC(=N)N)NC(=O)[C@H](Cc1c[nH]c2ccccc12)NC(=O)[C@H](CCC(N)=O)NC(=O)[C@H](Cc1c[nH]c2ccccc12)NC(=O)[C@H](CCCNC(=N)N)NC(=O)[C@@H](N)CCCNC(=N)N)C(=O)NCCCCCC(=O)N[C@@H](CSSC[C@H](NC(=O)CCCCCNC(=O)[C@H](CCCCNC(=O)[C@H](CCCNC(=N)N)NC(=O)[C@H](Cc1c[nH]c2ccccc12)NC(=O)[C@H](CCC(N)=O)NC(=O)[C@H](Cc1c[nH]c2ccccc12)NC(=O)[C@H](CCCNC(=N)N)NC(=O)[C@@H](N)CCCNC(=N)N)NC(=O)[C@H](CCCNC(=N)N)NC(=O)[C@H](Cc1c[nH]c2ccccc12)NC(=O)[C@H](CCC(N)=O)NC(=O)[C@H](Cc1c[nH]c2ccccc12)NC(=O)[C@H](CCCNC(=N)N)NC(=O)[C@@H](N)CCCNC(=N)N)C(N)=O)C(N)=O (I: H-RRWQWRK[Ahx]C-NH2 / II: H-RRWQWRK[Ahx]C-NH2 / III: H-RRWQWR / IV: H-RRWQWR; amide I:7-III:C, II:7-IV:C; disulfide I:9-II:9) | 22 µM | –
2 | CSCC[C@H](NC(=O)[C@H](CCCNC(=N)N)NC(=O)[C@H](Cc1c[nH]c2ccccc12)NC(=O)[C@H](CCC(N)=O)NC(=O)[C@H](Cc1c[nH]c2ccccc12)NC(=O)[C@H](CCCNC(=N)N)NC(=O)[C@@H](N)CCCNC(=N)N)C(=O)N[C@@H](CCCCN)C(=O)N[C@@H](CCCCN)C(=O)N[C@@H](CC(C)C)C(=O)NCC(=O)NCCCC[C@H](NC(=O)CNC(=O)[C@H](CC(C)C)NC(=O)[C@H](CCCCN)NC(=O)[C@H](CCCCN)NC(=O)[C@H](CCSC)NC(=O)[C@H](CCCNC(=N)N)NC(=O)[C@H](Cc1c[nH]c2ccccc12)NC(=O)[C@H](CCC(N)=O)NC(=O)[C@H](Cc1c[nH]c2ccccc12)NC(=O)[C@H](CCCNC(=N)N)NC(=O)[C@@H](N)CCCNC(=N)N)C(=O)NCCCCCC(N)=O (I: H-RRWQWRMKKLGK[Ahx]-NH2 / II: H-RRWQWRMKKLG; amide I:12-II:C) | – | 30 µM
